Data as given in US20240352412A1, “METHODS AND SYSTEMS FOR EXTENDED CULTURE OF HUMAN BLASTOIDS TO POST-IMPLANTATION STAGES ON 3D MATRICES” (Washington University, priority 2023, published 2024).
“Also recorded” adds a separate entry of the source.

Tests used:
[1] = tested on: WIBR3 OCT4-GFP naïve hPSCs; assay: Blastoid formation (cavitation) from 5i/L/A naïve hPSCs in Aggrewells; assay type: cell-based, human; conditions: for rate of cavitation on omission of the component from the blastoid media: component omitted/removed (Conditions 2-4), D7
Method: Naïve hPSCs were dissociated with Accutase for 5 minutes at 37° C. Single cell dissociate naïve stem cells and inactivate accutase enzymes with fibroblast medium. Centrifuge this suspension 1000 rpm for 5 minutes. Remove supernatant and wash once with DMEM/F12, centrifuge 1000 rpm for 5 minutes. Aspirate supernatant and resuspend in 2 mL of 5i/L/A medium. Remove iMEFs from the cell suspension by incubation on gelatin-coated plates for 30-45 minutes at 37° C. 5% CO2. Collect cells and count cells to plate 100,000 cells per 24 well Aggrewell (StemCell Technologies) well. Coat the aggrewells with Anti-adherence solution (StemCell Technologies) for 10 minutes at room temperature. Wash wells once with DMEM/F12, then add 1 mL of 5i/L/A medium. Add naïve stem cells to Aggrewells, 100,000 cells per 500 μL, total medium should be 1.5 mL per well. Centrifuge the plate 1000 rpm for 2 minutes for equal distribution of cell number per microwell. Incubate at 37° C. 5% CO2 and 5% 02 for one day. […]
Cavitation rate was determined by counting individual aggregates at 7 days of blastoid growth in at least 3 24-well wells per condition. Tile scan images of the entire well were stitched together and aggregates vs. cavitated aggregates were manually counted in ImageJ. […] Significance determined by a 1-way ANOVA with multiple comparisons. *p<0.05, **p<0.01.
Blastoid size was determined with ImageJ software by drawing a circle around the entire blastoid, and diameters determined by a single line drawn across the widest apparent part of the blastoid (day 7 n=1901; day 8 n=18). Inner cell mass size was determined by utilizing the OCT4-GFP channel and manually drawing around the brightest region of GFP+ areas (control n=152 blastoids; —CHIR n=130). Significance determined with Welch's t-test, ****p<0.0001.

[2] = tested on: 3D-cultured human blastoids (WIBR3 OCT4-GFP background); assay: Post implantation WNT modulation of 3D-cultured blastoids; assay type: cell-based; conditions: for OCT4-GFP reporter area (ratio of OCT4-GFP area: total blastoid area; EPI compartment) / OCT4-GFP signal intensity / invasive trophoblast projections / overall blastoid size (area): 2 μM in N2B27+E2, D8 to D14, 3D ECM, analysed at D14, vs control; for CTB shell: 2 μM, 6 days of treatment, D14 of 3D culture
Description: Blastoids can be transferred on either day 7 or day 8 of growth. Due to the inaccessibility of commercially available extracellular matrix products during the experimentation phases of this project, multiple matrices were utilized in this study-hESC qualified growth factor-reduced Matrigel (Corning), hESC qualified growth factor reduced Geltrex (Gibco), and Cultrex UltriMatrix reduced growth factor basement membrane extract (R&D, BME001). […] Matrices were thawed on ice and kept cold until crosslinking was desired. Matrices mixed together (Matrigel/geltrex) were mixed following thawing and plated into ibidi microwells (120 μL/well) (ibidi, 80826) or alternatively 96 well plates (40 μL/well). Matrices were solidified at 37° C. for 30 minutes. Wash matrices 2 times with DMEM/F12 before adding blastoids. Add N2B27+10 nM estradiol without antibiotics to each well. Plate desired numbers of blastoids to each well (3-5 in an ibidi microwell, 1-2 in a 96 well plate). Place the plate in the incubator (37° C., 5% CO2, 5% 02) for 24 hours. Replace media daily with N2B27+10 nM estradiol without antibiotics. If blastoids are added at 7 days, the following day they may be loosely attached. Wait approximately 28-30 hours following seeding to ensure blastoids are well anchored before changing medium. Polar TE side attaches and the ICM expands compared to the day before when properly attached. On the following day (day 9) the TE collapses. Migratory EVT emerge at day 13. Maintaining proper pH is important for blastoids post implantation, the medium should be at pH=7.2-7.4 by pre-equilibration in the incubator or use freshly made N2B27 that has not oxidized too excessively (media should be pink/orange in color, never purple). WIBR3 OCT4-GFP blastoids were grown to 7 days in blastoid generating conditions (see above) and blastoids with localized single ICM, continuous trophectoderm, and with a round blastocoel cavity were chosen by hand and plated upon a pre-formed 3D matrix (Cultrex UltriMatrix) formed with a 96 well plate (40 μL of Cultrex per well). 2 blastoids per well were plated among 10 wells for each condition in N2B27+1 mM Na Pyruvate+10 nM Estradiol (E2). Blastoids were allowed to attach for approximately 24-30 hours in the incubator (5% CO2, 5% O2, 37° C., 100% humidity). When blastoids attached, TE collapsed, and ICM expanded, medium was changed to N2B27+1 mM Na Pyruvate+10 nM E2+2 μM XAV939 or +2 μM CHIR99021. Media was changed daily and grown in a 37° C., 5% CO2, 5% O2 incubator. Blastoids were fixed in 4% paraformaldehyde as described above on day 14 of total blastoid growth.

| Compound | rate of cavitation on omission of the component from the blastoid media [1] | OCT4-GFP reporter area (ratio of OCT4-GFP area: total blastoid area; EPI compartment) [2] | OCT4-GFP signal intensity [2] | invasive trophoblast projections [2] | overall blastoid size (area) [2] | CTB shell [2] | TE expansion (ICM:TE ratio based on OCT4-GFP reporter activity) on omission of the component ([1]; component omitted (Condition 2)) |
| --- | --- | --- | --- | --- | --- | --- | --- |
| LIF: recombinant human leukemia inhibitory factor (PeproTech) | without adversely affecting the rate of cavitation | – | – | – | – | – | – |
| Oc1nc(-c2ccc(C(F)(F)F)cc2)nc2c1CSCC2 [XAV939] | – | notable expansion | increase in signal intensity | significantly fewer invasive trophoblast projections | reduced | reduction of the CTB shell | – |
| Cc1c[nH]c(-c2cnc(NCCNc3ccc(C#N)cn3)nc2-c2ccc(Cl)cc2Cl)n1 [CHIR99021] | enhanced the rate of cavitation | reduced ratio of OCT4-GFP+ cells | diminished intensity of OCT4-GFP reporter activity | significantly fewer invasive trophoblast projections | larger; also recorded: increased | expansion of the CTB shell | specifically promotes TE expansion |
